Measurements: patent US6300327A, “Compositions and methods for potentiation of neurotrophin activity” (The University of Southern California, priority 1997, dated 2001)
“Also recorded” adds a separate entry of the source. Where two headings read alike, the source gives them in different places.

Columns and labels:
[1] = tested on: midbrain dopaminergic neurons (cultures of ventral mesencephalon); experiment: Dopamine uptake in primary cultures of fetal rat ventral mesencephalon; type: cell-based; conditions: for activity at 5 µM: Rattus norvegicus, Neuron; for Dopamine uptake, Mean ± SEM: n=4
Description: Primary cultures of fetal rat brain septal and mesencephalic cells were prepared in a heretofore known manner [Knusel et al., supra]. Briefly, defined areas were dissected from fetal rat brains (Wistar, E15-16, Charles River, Mass.). The septal area contained the cholinergic neurons from septum, diagonal band of Broca and nucleus basalis. The ventral mesencephalon containing the dopaminergic neurons of the substantia nigra and the ventral tegmental area was dissected and dissociated mechanically. The cells were plated in 16 mm multiwell plates precoated with polyethyleneimine (1 mg/ml, 37° C., overnight), containing 0.5 ml modified L-15 medium supplemented with 5% heat inactivated horse serum and 0.5% heat inactivated fetal calf serum. Modified L-15 was prepared [Knusel et al., "Selective and Nonselective Stimulation of Central Cholinergic and dopaminergic Development in vitro by Nerve Growth Factor, Basic Fibroblast Growth Factor, Epidermal Growth Factor, Insulin and the Insulin-like Growth Factors I and II," J. Neurosci. 10:558-570 (1990)] by adding various amino acids, vitamins, antibiotics, glucose and NaHCO3 to Leibovitz's L-15 medium (Gibco, Grand Island, N.Y.). Plating densities were 4×10^5 cells/cm^2 for basal forebrain cultures and 3×10^5 cells/cm^2 for mesencephalic cultures. Of these cells, 0.5 to 1% were cholinergic or dopaminergic, respectively. Growth factors were typically added on the second day of culture and the cells were grown for 5 or more days. For ChAT assays tissue was homogenized in 250 μl of 50 mM Tris-HCl buffer, pH 6.0 with 0.3% Triton X-100. [1-^14 C]acetylcoenzyme A (NEN) concentration was 20 μM and specific activity 4.09 Ci/mol. To measure dopamine uptake, cultures were preincubated for 5 min at 37° C. with 250 μl incubation solution (5 mM glucose, 1 mM ascorbic acid in PBS) containing 1 mM pargyline. [^3 H]dopamine (37 Ci/mmol) was then added to give a final concentration of 50 nM and the cultures were incubated for another 15 minutes. Blanks were obtained by incubating cells at 0° C.
In Table 1, dopamine uptake is given as fmol/min/culture dish. Cultures were grown in 24-well plates for 7 days in L-15 medium with 5% horse and 0.5% fetal bovine serum and treated with growth factors and K-252b from the second day of culture. rhBDNF, 200 ng/ml; des-IGF-1, 1 μg/ml; n=4; *different from respective control group, p <0.01 (Student's t-test). The apparent difference between control cultures grown in presence and absence of K-252b was statistically not significant. The experiment shown is a representative case of a total of 5 independent experiments.

[2] = tested on: chick dorsal root ganglia neurons (DRG); experiment: Survival of dissociated chick DRG neurons (embryonic day 9); type: cell-based
Description: DRGs of embryonic day 9 chicks were dissected and dissociated using enzymatic and mechanical procedures as described in the literature [Rosenthal, A. et al., "Primary Structure and Biological Activity of a Novel Human Neurotrophic Factor," Neuron 4:767-773 (1990)]. 1800 neurons were plated per well in 96-well tissue culture plates pretreated with polyornithine (500 μg/ml) and laminin (10 μg/ml). Cells were incubated for 48 hrs with or without growth factors and the indicated concentrations of K-252b. Phase-bright cells with elaborated neurites 5× the diameter of the cell bodies were then counted.
Similar to the findings obtained in primary cultures of brain cholinergic neurons, low concentration of K-252b (50 nM) potentiated the survival promoting action of a maximally effective concentration of NT-3 (FIG. 3). Survival of dissociated chick DRG neurons in presence of rhNGF (100 ng/ml) or rhNT-3 (100 ng/ml) and K-252b is illustrated in FIG. 3; concentrations on the horizontal axis are for K-252b. The columns represent means +SEMs. […] High concentrations of K-252b (10 μM) inhibited the action of NGF on sensory neurons, as found for cholinergic neurons (FIG. 3).

PC12 cells = experiment: Neurite outgrowth of PC12 cells; type: cell-based; conditions: 48 hours
Description: PC12 cells were grown as described earlier [Kaplan et al., 1990, 1991a, b]. To assess effects on neurite outgrowth, cells were incubated for 48 hours with K-252b (50 nM) and NT-3 or NGF (50 ng/ml). Neurites were scored if they were a length of one cell body or more.
Experiments on PC12 cells confirmed observations made on primary neuron cultures. Treatment with K-252b stimulated NT-3 induced neurite outgrowth and trk tyrosine phosphorylation in PC12 cells while inhibiting NGF induced effects. PC12 cells were incubated for 48 hours with K-252b (50 nM) and NT-3 or NGF (50 ng/ml). FIG. 4A illustrates the % cells with neurites after 48 hours incubation. Neurites were scored if they were a length of one cell body or more. PC12 cells were subsequently lysed and immunoprecipitated with anti-trk serum. trk proteins were subjected to SDS-PAGE and analyzed by immunoblotting with anti-phosphotyrosine antibodies (FIG. 4B). Lane 1, NT-3 +K-252b; lane 2, NT-3; lane 3, NGF +K-252b; lane 4, NGF. For FIG. 4C, PC12 cells were incubated for 1 hour in K-252b (50 nM or 10 μM) and with NT-3 or NGF for 5 minutes prior to lysis; other methods were the same as described for FIG. 4B. Lane 1, NT-3+10 μM K-252b; lane 2, NT-3±50 nM K-252b; lane 3, NT-3; lane 4, NGF+10 μM K-252b; lane 5, NGF+50 nM K-252b; lane 6, NGF; lane 7, untreated control.

[3] = molecular target: cGMP-dependent protein kinase; conditions: in vitro assay systems; cited from earlier work
[4] = tested on: protein kinase activity of the platelet-derived growth factor; conditions: cell-free preparations; cited from earlier work

SMILES: CC12OC(CC1(O)C(=O)O)n1c3ccccc3c3c4c(c5c6ccccc6n2c5c31)CNC4=O (centres unmarked) [K-252b]
- effect on increase in dopamine uptake mediated by BDNF ([1]; K-252b 5 μM (Table 1)): prevented the increase in dopamine uptake; also recorded: inhibits the stimulatory action
- activity at 5 µM ([1]; read-out: Dopamine uptake, % of Control, With K-252b (5 μM) + des-IGF-1 1 μg/ml): 201%
- activity at 5 µM ([1]; read-out: Dopamine uptake, % of Control, With K-252b (5 μM) + rhBDNF 200 ng/ml): 119%
- Dopamine uptake, Mean ± SEM ([1]; With K-252b (5 μM) + des-IGF-1 1 μg/ml): 22.9 ± 1.0 fmol/min/culture dish
- Dopamine uptake, Mean ± SEM ([1]; With K-252b (5 μM) + rhBDNF 200 ng/ml): 13.6 ± 0.7 fmol/min/culture dish
- Dopamine uptake, Mean ± SEM ([1]; With K-252b (5 μM), no growth factor (Control)): 11.4 ± 0.2 fmol/min/culture dish
- effect on stimulatory action of bFGF and insulin on dopamine uptake ([1]; bFGF and insulin): does not inhibit
- effect on stimulatory action of des-IGF-1 on dopamine uptake ([1]; des-IGF-1 1 μg/ml): not to inhibit
- effect on action of BDNF on dopaminergic neurons ([1]; low concentrations of K-252b): did not potentiate
- effect on survival mediated by NGF or BDNF ([2]; 50 nM K-252b): failed to influence survival
- number of neurons supported by combination with NT-3 ([2]; 50 nM K-252b + NT-3): identical to that supported by NGF alone
- effect on survival promoting action of NT-3 ([2]; 50 nM K-252b, rhNT-3 100 ng/ml): potentiated
- effect on action of NGF on sensory neurons ([2]; 10 μM K-252b, rhNGF 100 ng/ml): inhibited
- reduction of NGF-induced neurite outgrowth (PC12 cells; 50 nM K-252b + NGF 50 ng/ml): approximately three-fold
- effect on NT-3 induced neurite outgrowth (PC12 cells; 50 nM K-252b + NT-3 50 ng/ml, vs NT-3 alone): significantly more neurite outgrowth activity
- Ki [3]: 10 to 100 nM
- inhibition of protein kinase activity of the platelet-derived growth factor [4]: inhibits
